In patent US8697140B2, “Virucidal disinfectant” (priority 2005, dated 2014):
Where “and” joins values, the source holds several entries; their conditions need not be identical. Equal entries are not always repeated.

Columns and labels:
poliovirus = conditions: cited from earlier work
[1] = test system: poliovirus (polio vaccination strain type I, strain LSc-2ab)

| Structure (SMILES) | Effectiveness against poliovirus (poliovirus) | Reduction of poliovirus titer [1] |
| --- | --- | --- |
| O=P(O)(O)O [phosphoric acid] | ineffective |  |
| C=O [formaldehyde solution, formaldehyde] |  | 1.25 log10 steps and 2.13 log10 steps |
